Assay results: ChEMBL document CHEMBL1158501, “Synthesis and structure-activity relationships of novel furazan-3,4-diamide analogs as potent anti-cancer agents” (Bioorg Med Chem Lett, 2010)

What was measured:
[1] = tested on: U-87 MG; experiment: Inhibition of human U87MG cells after 48 hrs; type: functional, cell-based, U-87MG ATCC
[2] = tested on: SW480; experiment: Inhibition of human SW480 cells after 48 hrs; type: functional, cell-based; conditions: SW480, 48 h
[3] = tested on: U-87 MG; experiment: Inhibition of human U87MG cells at >= IC50 after 48 hrs; type: functional, U-87MG ATCC
[4] = tested on: SW480; experiment: Inhibition of human SW480 cells at >= IC50 after 48 hrs; type: functional

Structure (SMILES)	IC50 [1] [µM]	IC50 [2] [µM]	inhibition (INH) [3] [%]	inhibition (INH) [4] [%]
COc1ccc(C(=O)Nc2nonc2NC(=O)c2ccc(OC)cc2)cc1	> 40	> 40		
O=C(Nc1nonc1NC(=O)c1c(F)c(F)c(F)c(F)c1F)c1c(F)c(F)c(F)c(F)c1F	25.5	17.2		
O=C(Nc1nonc1NC(=O)C1CCCC1)C1CCCC1	> 200	> 200		
O=C(Nc1nonc1NC(=O)c1ccccc1C(F)(F)F)c1ccccc1C(F)(F)F	> 100	89.3		
O=C(Nc1nonc1NC(=O)c1ccc(Cl)cc1)c1ccc(Cl)cc1	14	8	70	50
O=C(Nc1ccccc1NC(=O)c1ccc(C(F)(F)F)cc1)c1ccc(C(F)(F)F)cc1	> 8	> 8		
O=C(Nc1nonc1NCc1ccc(C(F)(F)F)cc1)c1ccc(C(F)(F)F)cc1	18.2	18.5		
O=C(Nc1cscc1NC(=O)c1ccc(C(F)(F)F)cc1)c1ccc(C(F)(F)F)cc1	> 8	> 8		
O=C(Nc1nonc1NC(=O)c1ccc(C(F)(F)F)cc1)c1ccc(C(F)(F)F)cc1	14.6	11.2		
O=C(Nc1nonc1NC(=O)C(Cl)(Cl)Cl)C(Cl)(Cl)Cl	> 200	> 200		
O=C(Nc1nonc1NC(=O)c1ccc(Cl)c(Cl)c1)c1ccc(Cl)c(Cl)c1	24	39.7		
Cc1ccc(C(=O)Nc2nonc2NC(=O)c2ccc(C)cc2)cc1	> 40	> 40		
O=C(Nc1nonc1NC(=O)c1ccccc1)c1ccccc1	122	137		
Nc1nonc1NC(=O)c1ccc(C(F)(F)F)cc1	> 200	> 200		
O=C(Nc1nonc1NC(=O)C1CCCCC1)C1CCCCC1	> 20	> 20		
O=C(Nc1nonc1NC(=O)c1cc(C(F)(F)F)cc(C(F)(F)F)c1)c1cc(C(F)(F)F)cc(C(F)(F)F)c1	17.7	10.8		
O=C(Nc1n[nH]c(O)c1NC(=O)c1ccc(C(F)(F)F)cc1)c1ccc(C(F)(F)F)cc1	> 200	> 200		
O=C(Nc1nonc1NC(=O)c1ccco1)c1ccco1	> 200	> 200		
O=C(CCl)Nc1nonc1NC(=O)CCl	17.1	7.4		
CC(C)=CC(=O)Nc1nonc1NC(=O)C=C(C)C	> 200	> 200		
O=C(CN1CCOCC1)Nc1nonc1NC(=O)CN1CCOCC1	> 200	> 200		
O=C(Nc1nonc1NC(=O)c1ccc(I)cc1)c1ccc(I)cc1	1	2	70	50
FC(F)(F)c1ccc(CNc2nonc2NCc2ccc(C(F)(F)F)cc2)cc1	20.6	22.9		
COc1cccc(C(=O)Nc2nonc2NC(=O)c2cccc(OC)c2)c1	70.7	71		
O=C(Nc1nonc1NC(=O)c1ccc(F)cc1)c1ccc(F)cc1	6	10		50
O=C(Nc1nonc1NC(=O)c1cccc(C(F)(F)F)c1)c1cccc(C(F)(F)F)c1	> 10	> 10		
O=C(Nc1nonc1NC(=O)c1ccc(Br)cc1)c1ccc(Br)cc1	14	4	77	50
